Data published in the supplement of paper PMC6045584.
± gives the standard deviation of the averaged measurements.

Columns and labels:
MK-1775 = compound: C=CCn1c(=O)c2cnc(Nc3ccc(N4CCN(C)CC4)cc3)nc2n1-c1cccc(C(C)(C)O)n1 [MK-1775]; assay: surviving fraction relative to DMSO-only wells; higher = less growth inhibition; settings: exposure time: 5 days
Method in brief: (§1)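 Lines were retained only if, across three screens, replicate Pearson r was >0.7 and median Z' was >0.3. Viability was measured as CellTiter-Glo luminescence and reported as surviving fraction relative to the median of DMSO-only wells. Readings followed 10 minutes at room temperature, after log-phase tumour cells seeded at 250–500 per well in 384-well plates had been exposed, from 24 hours after seeding, continuously for five days to inhibitors at 0.5, 1, 5, 10, 50, 100, 500 and 1000 nM.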

BLEOMYCIN = compound: Cc1c(N)nc([C@H](CC(N)=O)NC[C@H](N)C(N)=O)nc1C(=O)N[C@H](C(=O)N[C@H](C)[C@@H](O)[C@H](C)C(=O)N[C@H](C(=O)NCCc1nc(-c2nc(C(=O)NCCC[S+](C)C)cs2)cs1)[C@@H](C)O)[C@@H](OC1OC(CO)C(O)C(O)C1OC1OC(CO)C(O)C(OC(N)=O)C1O)c1cnc[nH]1 [BLEOMYCIN]; assay: as above; settings: exposure time: 5 days
Method in brief: as §1

Test System | surviving fraction (MK-1775; 0.5 nM) | surviving fraction (MK-1775; 1 nM) | surviving fraction (MK-1775; 5 nM) | surviving fraction (MK-1775; 10 nM) | surviving fraction (MK-1775; 50 nM) | surviving fraction (MK-1775; 100 nM) | surviving fraction (MK-1775; 500 nM) | surviving fraction (MK-1775; 1000 nM) | surviving fraction (BLEOMYCIN; 0.5 nM) | surviving fraction (BLEOMYCIN; 1 nM) | surviving fraction (BLEOMYCIN; 5 nM) | surviving fraction (BLEOMYCIN; 10 nM) | surviving fraction (BLEOMYCIN; 50 nM) | surviving fraction (BLEOMYCIN; 100 nM) | surviving fraction (BLEOMYCIN; 500 nM) | surviving fraction (BLEOMYCIN; 1000 nM)
JURKAT HAEMATOPOIETIC AND LYMPHOID TISSUE | 1.09 ± 0.017 | 1.11 ± 0.016 | 1.08 ± 0.019 | 1.099 ± 0.0087 | 0.986 ± 0.038 | 0.772 ± 0.036 | 0.039 ± 0.001 | 0.039 | 1.01 ± 0.02 | 1.02 ± 0.016 | 0.986 ± 0.016 | 0.977 ± 0.012 | 0.916 ± 0.017 | 0.786 ± 0.026 | 0.232 ± 0.0061 | 0.122 ± 0.0062
KPD BONE | 0.945 ± 0.12 | 0.91 ± 0.02 | 0.971 ± 0.029 | 0.949 ± 0.031 | 0.954 ± 0.034 | 0.808 ± 0.039 | 0.293 ± 0.0046 | 0.175 ± 0.009 | 0.862 ± 0.01 | 0.828 ± 0.062 | 0.875 ± 0.021 | 0.891 ± 0.034 | 0.767 ± 0.018 | 0.699 ± 0.018 | 0.495 ± 0.04 | 0.407 ± 0.014
LM7 BONE | 0.957 ± 0.1 | 0.947 ± 0.065 | 0.999 ± 0.12 | 0.982 ± 0.15 | 0.751 ± 0.013 | 0.506 ± 0.032 | 0.146 ± 0.016 | 0.0563 ± 0.0015 | 0.745 ± 0.055 | 0.756 ± 0.039 | 0.834 ± 0.029 | 0.823 ± 0.091 | 0.91 ± 0.048 | 0.767 ± 0.05 | 0.402 ± 0.022 | 0.289 ± 0.044
LNCAP PROSTATE | 0.99 ± 0.088 | 0.951 ± 0.14 | 0.995 ± 0.082 | 0.921 ± 0.14 | 0.984 ± 0.065 | 0.544 ± 0.073 | 0.161 ± 0.012 | 0.0767 ± 0.013 | 1.18 ± 0.11 | 1.04 ± 0.038 | 1.14 ± 0.085 | 0.96 ± 0.15 | 1.03 ± 0.061 | 0.868 ± 0.076 | 0.847 ± 0.074 | 0.595 ± 0.072
MCF7 BREAST | 0.886 ± 0.021 | 0.894 ± 0.013 | 0.864 ± 0.0098 | 0.873 ± 0.042 | 0.869 ± 0.052 | 0.856 ± 0.028 | 0.736 ± 0.014 | 0.602 ± 0.035 | 0.816 ± 0.033 | 0.821 ± 0.015 | 0.819 ± 0.007 | 0.779 ± 0.05 | 0.829 ± 0.037 | 0.847 ± 0.028 | 0.787 ± 0.0039 | 0.7254 ± 0.0065
MDAMB134 BREAST | 1.11 ± 0.1 | 1.02 ± 0.086 | 1.17 ± 0.039 | 1.075 ± 0.0064 | 1.08 ± 0.064 | 0.994 ± 0.047 | 0.752 ± 0.035 | 0.733 ± 0.0099 | 0.714 ± 0.15 | 0.771 ± 0.044 | 0.844 ± 0.011 | 0.724 ± 0.047 | 0.804 ± 0.04 | 0.862 ± 0.12 | 0.733 ± 0.091 | 0.753 ± 0.088
MDAMB157 BREAST | 0.835 ± 0.1 | 0.95 ± 0.075 | 0.94 ± 0.075 | 0.966 ± 0.096 | 0.522 ± 0.045 | 0.278 ± 0.067 | 0.0617 ± 0.015 | 0.0613 ± 0.0072 | 0.89 ± 0.033 | 0.915 ± 0.045 | 0.788 ± 0.033 | 0.863 ± 0.025 | 0.815 ± 0.047 | 0.736 ± 0.07 | 0.476 ± 0.016 | 0.288 ± 0.056
MDAMB231 BREAST | 1.01 ± 0.034 | 1 ± 0.037 | 1 ± 0.026 | 1 ± 0.04 | 1.01 ± 0.043 | 0.778 ± 0.028 | 0.155 ± 0.0079 | 0.146 ± 0.0047 | 0.961 ± 0.017 | 0.958 ± 0.018 | 0.978 ± 0.014 | 0.935 ± 0.019 | 0.887 ± 0.028 | 0.845 ± 0.021 | 0.642 ± 0.029 | 0.504 ± 0.01
MDAMB361 BREAST | 0.862 ± 0.075 | 0.805 ± 0.039 | 0.875 ± 0.053 | 0.79 ± 0.053 | 0.68 ± 0.066 | 0.549 ± 0.047 | 0.478 ± 0.014 | 0.459 ± 0.015 | 0.78 ± 0.07 | 0.761 ± 0.13 | 0.698 ± 0.03 | 0.819 ± 0.067 | 0.843 ± 0.016 | 0.882 ± 0.046 | 0.838 ± 0.047 | 0.865 ± 0.14
MDAMB436 BREAST | 0.978 ± 0.045 | 0.969 ± 0.028 | 0.948 ± 0.031 | 0.902 ± 0.081 | 0.79 ± 0.073 | 0.66 ± 0.023 | 0.312 ± 0.013 | 0.317 ± 0.021 | 0.799 ± 0.027 | 0.825 ± 0.031 | 0.834 ± 0.024 | 0.791 ± 0.033 | 0.773 ± 0.031 | 0.814 ± 0.06 | 0.598 ± 0.056 | 0.506 ± 0.073
MDAMB453 BREAST | 1.09 ± 0.021 | 1.07 ± 0.034 | 1.13 ± 0.048 | 1.06 ± 0.052 | 1.14 ± 0.076 | 0.959 ± 0.1 | 0.214 ± 0.041 | 0.161 ± 0.021 | 1.06 ± 0.051 | 1.03 ± 0.011 | 1.05 ± 0.045 | 1.09 ± 0.064 | 1.067 ± 0.009 | 1.14 ± 0.052 | 0.851 ± 0.061 | 0.711 ± 0.024
MDAMB468 BREAST | 1.06 ± 0.041 | 1.05 ± 0.049 | 1.07 ± 0.089 | 1.02 ± 0.043 | 1.12 ± 0.04 | 0.985 ± 0.029 | 0.259 ± 0.026 | 0.0773 ± 0.0029 | 0.804 ± 0.036 | 0.863 ± 0.058 | 0.912 ± 0.044 | 0.932 ± 0.039 | 1.09 ± 0.027 | 0.989 ± 0.049 | 0.768 ± 0.035 | 0.577 ± 0.026
MFM223 BREAST | 1.16 ± 0.057 | 1.14 ± 0.04 | 1.06 ± 0.067 | 1.14 ± 0.036 | 0.958 ± 0.045 | 0.545 ± 0.05 | 0.161 ± 0.0064 | 0.192 ± 0.02 | 0.719 ± 0.028 | 0.784 ± 0.13 | 0.702 ± 0.076 | 0.703 ± 0.032 | 0.961 ± 0.049 | 0.923 ± 0.0095 | 0.789 ± 0.047 | 0.681 ± 0.047
MG63 BONE | 1.02 ± 0.033 | 0.999 ± 0.026 | 1.07 ± 0.027 | 1.056 ± 0.0072 | 1.06 ± 0.053 | 1 ± 0.068 | 0.244 ± 0.025 | 0.121 ± 0.0076 | 0.861 ± 0.018 | 0.876 ± 0.018 | 0.864 ± 0.025 | 0.829 ± 0.018 | 0.831 ± 0.02 | 0.64 ± 0.075 | 0.22 ± 0.035 | 0.132 ± 0.0027
MHM BONE | 0.981 ± 0.02 | 0.9753 ± 0.0067 | 1.04 ± 0.015 | 1.01 ± 0.033 | 1.02 ± 0.025 | 1.03 ± 0.025 | 0.638 ± 0.013 | 0.5597 ± 0.00058 | 0.966 ± 0.034 | 0.975 ± 0.015 | 1.01 ± 0.03 | 0.985 ± 0.019 | 0.999 ± 0.014 | 0.921 ± 0.016 | 0.718 ± 0.013 | 0.665 ± 0.0046
NCIH441 LUNG | 1.11 ± 0.085 | 1.04 ± 0.031 | 1.03 ± 0.029 | 0.986 ± 0.049 | 0.944 ± 0.065 | 0.794 ± 0.044 | 0.428 ± 0.057 | 0.369 ± 0.044 | 0.956 ± 0.093 | 1.01 ± 0.05 | 0.919 ± 0.045 | 0.887 ± 0.063 | 0.838 ± 0.066 | 0.857 ± 0.015 | 0.762 ± 0.017 | 0.52 ± 0.028
NOS1 BONE | 0.939 ± 0.1 | 1.08 ± 0.028 | 0.945 ± 0.02 | 0.764 ± 0.039 | 0.209 ± 0.011 | 0.158 ± 0.02 | 0.223 ± 0.029 | 0.206 ± 0.036 | 0.877 ± 0.087 | 0.841 ± 0.063 | 0.795 ± 0.04 | 0.782 ± 0.14 | 1.02 ± 0.33 | 0.863 ± 0.038 | 0.557 ± 0.046 | 0.656 ± 0.25
NY BONE | 1.04 ± 0.056 | 1.01 ± 0.014 | 1.1 ± 0.017 | 1.03 ± 0.013 | 0.638 ± 0.04 | 0.254 ± 0.016 | 0.113 ± 0.0076 | 0.0633 ± 0.0021 | 0.9287 ± 0.0064 | 0.925 ± 0.054 | 0.938 ± 0.028 | 0.911 ± 0.026 | 0.793 ± 0.035 | 0.589 ± 0.044 | 0.238 ± 0.0045 | 0.161 ± 0.012
OS25HAL BONE | 0.9753 ± 0.0045 | 0.9973 ± 0.0092 | 1.03 ± 0.019 | 1.02 ± 0.025 | 0.973 ± 0.042 | 0.554 ± 0.026 | 0.0463 ± 0.0032 | 0.0417 ± 0.0025 | 0.885 ± 0.027 | 0.8967 ± 0.0078 | 0.924 ± 0.026 | 0.894 ± 0.027 | 0.936 ± 0.011 | 0.895 ± 0.058 | 0.511 ± 0.048 | 0.286 ± 0.004
OSHN BONE | 1.06 ± 0.03 | 1.06 ± 0.026 | 1.08 ± 0.04 | 1.05 ± 0.039 | 1.08 ± 0.04 | 1.06 ± 0.046 | 0.143 ± 0.016 | 0.0503 ± 0.0025 | 0.9207 ± 0.0087 | 0.916 ± 0.012 | 0.916 ± 0.007 | 0.903 ± 0.024 | 0.925 ± 0.0044 | 0.856 ± 0.07 | 0.29 ± 0.039 | 0.132 ± 0.03
